# Reference: patent publication US11066396B2 (priority 2016, dated 2021)
# Experiments:
# HDAC1 = HDAC1 (Homo sapiens (Human), UniProt Q13547); conditions: read-out: HDAC1 IC50
# HDAC8 = HDAC8 (Homo sapiens (Human), UniProt Q9BY41); conditions: read-out: HDAC8 IC50
# HDAC8, sequence (Q9BY41 whole entry): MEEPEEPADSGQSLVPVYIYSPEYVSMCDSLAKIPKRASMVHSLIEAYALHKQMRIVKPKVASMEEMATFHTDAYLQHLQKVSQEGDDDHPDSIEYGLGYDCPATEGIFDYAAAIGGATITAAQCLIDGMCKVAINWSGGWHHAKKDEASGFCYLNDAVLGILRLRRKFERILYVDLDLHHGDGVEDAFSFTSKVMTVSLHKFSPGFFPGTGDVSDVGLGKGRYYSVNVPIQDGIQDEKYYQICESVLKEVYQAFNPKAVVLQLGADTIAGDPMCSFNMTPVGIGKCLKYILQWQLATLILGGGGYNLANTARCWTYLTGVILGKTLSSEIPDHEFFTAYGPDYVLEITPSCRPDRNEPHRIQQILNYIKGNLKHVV
# HDAC1, sequence (Q13547 whole entry): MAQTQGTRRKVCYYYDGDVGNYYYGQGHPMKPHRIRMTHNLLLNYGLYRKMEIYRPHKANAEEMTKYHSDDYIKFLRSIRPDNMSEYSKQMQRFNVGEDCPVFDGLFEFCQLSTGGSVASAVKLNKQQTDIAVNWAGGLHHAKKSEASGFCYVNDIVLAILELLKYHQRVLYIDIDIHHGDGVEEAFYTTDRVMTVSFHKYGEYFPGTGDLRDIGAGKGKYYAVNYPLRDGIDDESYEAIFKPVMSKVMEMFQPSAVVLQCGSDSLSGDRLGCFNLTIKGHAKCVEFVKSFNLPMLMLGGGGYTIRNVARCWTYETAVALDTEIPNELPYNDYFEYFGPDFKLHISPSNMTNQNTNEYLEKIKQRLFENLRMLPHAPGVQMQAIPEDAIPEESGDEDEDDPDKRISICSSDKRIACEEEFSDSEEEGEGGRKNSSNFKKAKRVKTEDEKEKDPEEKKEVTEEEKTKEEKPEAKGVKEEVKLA
SMILES,IC50 (HDAC1) [nM],IC50 (HDAC8) [nM]
"O=C1COC[C@@H](c2ccccc2)N1c1ccc(-c2noc(C(F)(F)F)n2)nn1 [Example 165, (R)-5-phenyl-4-(6-(5-(trifluoromethyl)-1,2,4-oxadiazol-3-yl)pyridazin-3-yl)morpholin-3-one]",28000,21000
"NC(=O)c1ccccc1NCc1ccc(-c2noc(C(F)(F)F)n2)cn1 [Example 174, 2-(((5-(5-(Trifluoromethyl)-1,2,4-oxadiazol-3-yl)pyridin-2-yl)methyl)amino)benzamide]",300,700
"O=C1CC[C@@H](CO)N1c1ccc(-c2noc(C(F)(F)F)n2)c(F)c1 [Example 188, (S)-1-(3-Fluoro-4-(5-(trifluoromethyl)-1,2,4-oxadiazol-3-yl)phenyl)-5-(hydroxymethyl)pyrrolidin-2-one]",380,38
"O=C1CC[C@@H](CN2CCOCC2)N1c1ccc(-c2noc(C(F)(F)F)n2)c(F)c1 [Example 189, (S)-1-(3-Fluoro-4-(5-(trifluoromethyl)-1,2,4-oxadiazol-3-yl)phenyl)-5-(morpholinomethyl)pyrrolidin-2-one]",15000,6900
"FC(F)(F)c1nc(-c2ccnc(OCc3ccno3)c2)no1 [Example 207, 2-(isoxazol-5-ylmethoxy)-4-[5-(trifluoromethyl)-1,2,4-oxadiazol-3-yl]pyridine]",1500,1300
"FC(F)(F)c1nc(-c2ccnc(OCc3cnn4c3OCCC4)c2)no1 [Example 209, 3-[({4-[5-(trifluoromethyl)-1,2,4-oxadiazol-3-yl]pyridin-2-yl}oxy)methyl]-6,7-dihydro-5H-pyrazolo[5,1-b][1,3]oxazine]",6800,4400
"Cn1nccc1COc1cc(-c2noc(C(F)(F)F)n2)ccn1 [Example 221, 2-[(1-methyl-1H-pyrazol-5-yl)methoxy]-4-[5-(trifluoromethyl)-1,2,4-oxadiazol-3-yl]pyridine]",2800,1600
"Cc1nc(COc2cc(-c3noc(C(F)(F)F)n3)ccn2)no1 [Example 225, 2-[(5-methyl-1,2,4-oxadiazol-3-yl)methoxy]-4-[5-(trifluoromethyl)-1,2,4-oxadiazol-3-yl]pyridine]",1500,620
"Cn1c(OCc2ccc(-c3noc(C(F)(F)F)n3)c(F)c2)nc2ccccc21 [Example 235, 2-({3-fluoro-4-[5-(trifluoromethyl)-1,2,4-oxadiazol-3-yl]phenyl}methoxy)-1-methyl-1H-benzimidazole]",520,770
"Cn1c(OCc2ccc(-c3noc(C(F)(F)F)n3)c(F)c2)nc2cccnc21 [Example 238, 2-({3-fluoro-4-[5-(trifluoromethyl)-1,2,4-oxadiazol-3-yl]phenyl}methoxy)-3-methyl-3H-imidazo[4,5-b]pyridine]",510,1300
"Fc1cc(COc2nc[nH]n2)ccc1-c1noc(C(F)(F)F)n1 [Example 247, 3-(2-fluoro-4-{[(1H-1,2,4-triazol-3-yl)oxy]methyl}phenyl)-5-(trifluoromethyl)-1,2,4-oxadiazole]",5500,1400
"O=c1ccc2ccc(Br)cc2n1Cc1ccc(-c2noc(C(F)(F)F)n2)cc1 [Example 321, 7-bromo-1-{4-[5-(trifluoromethyl)-1,2,4-oxadiazol-3-yl]benzyl}quinolin-2(1H)-one]",210,2600
"Fc1ccc2ccc(OCc3ccc(-c4noc(C(F)(F)F)n4)cn3)nc2c1 [Example 326, 7-fluoro-2-({5-[5-(trifluoromethyl)-1,2,4-oxadiazol-3-yl]pyridin-2-yl}methoxy)quinoline]",35000,45000
O=C1CCC(c2ccc(-c3noc(C(F)(F)F)n3)cc2)N1c1ccccc1F (centres unmarked) [Example 329],3900,7900
"O=C1CCc2cccnc2N1Cc1ccc(-c2noc(C(F)(F)F)n2)cn1 [Example 330, 1-({5-[5-(trifluoromethyl)-1,2,4-oxadiazol-3-yl]pyridin-2-yl}methyl)-3,4-dihydro-1,8-naphthyridin-2(1H)-one]",3700,18000
"CC(C)(C)OC(=O)[C@@H]1CCC(=O)N1c1ccc(-c2noc(C(F)(F)F)n2)c(F)c1 [Example 331, tert-butyl 1-{3-fluoro-4-[5-(trifluoromethyl)-1,2,4-oxadiazol-3-yl]phenyl}-5-oxo-L-prolinate]",4900,19000
"O=C1OC[C@@H](c2ccccc2)N1c1ccc(-c2noc(C(F)(F)F)n2)c(F)c1 [Example 332, (4R)-3-{3-fluoro-4-[5-(trifluoromethyl)-1,2,4-oxadiazol-3-yl]phenyl}-4-phenyl-1,3-oxazolidin-2-one]",4500,4500

SMILES,IC50 (HDAC1) [nM],IC50 (HDAC8) [nM]
"Cc1noc([C@@H]2CCC(=O)N2c2ccc(-c3noc(C(F)(F)F)n3)c(F)c2)n1 [Example 333, (5S)-1-{3-fluoro-4-[5-(trifluoromethyl)-1,2,4-oxadiazol-3-yl]phenyl}-5-(3-methyl-1,2,4-oxadiazol-5-yl)pyrrolidin-2-one]",3300,6700
"O=C([C@@H]1CCC(=O)N1c1cc(F)c(-c2noc(C(F)(F)F)n2)cc1F)N1CCCc2ccccc21 [Example 334, (5S)-1-{2,5-difluoro-4-[5-(trifluoromethyl)-1,2,4-oxadiazol-3-yl]phenyl}-5-(3,4-dihydroquinolin-1(2H)-ylcarbonyl)pyrrolidin-2-one]",4400,19000
"O=C([C@@H]1CCC(=O)N1c1cc(F)c(-c2noc(C(F)(F)F)n2)cc1F)N1CCc2ccccc2C1 [Example 335, (5S)-1-{2,5-difluoro-4-[5-(trifluoromethyl)-1,2,4-oxadiazol-3-yl]phenyl}-5-(3,4-dihydroisoquinolin-2(1H)-ylcarbonyl)pyrrolidin-2-one]",1200,7400
"O=C([C@@H]1CCC(=O)N1c1cc(F)c(-c2noc(C(F)(F)F)n2)cc1F)N1CCCC1 [Example 336, (5S)-1-{2,5-difluoro-4-[5-(trifluoromethyl)-1,2,4-oxadiazol-3-yl]phenyl}-5-(pyrrolidin-1-ylcarbonyl)pyrrolidin-2-one]",10000,26000
"CC1(C)CCCN1C(=O)[C@@H]1CCC(=O)N1c1cc(F)c(-c2noc(C(F)(F)F)n2)cc1F [Example 339, (5S)-1-{2,5-difluoro-4-[5-(trifluoromethyl)-1,2,4-oxadiazol-3-yl]phenyl}-5-[(2,2-dimethylpyrrolidin-1-yl)carbonyl]pyrrolidin-2-one]",13000,45000
"O=C([C@@H]1CCC(=O)N1c1cc(F)c(-c2noc(C(F)(F)F)n2)cc1F)N1CCC1 [Example 341, (5S)-5-(azetidin-1-ylcarbonyl)-1-{2,5-difluoro-4-[5-(trifluoromethyl)-1,2,4-oxadiazol-3-yl]phenyl}pyrrolidin-2-one]",41000,26000
"CC1(C)CCCN1C(=O)[C@@H]1CCC(=O)N1c1ccc(-c2noc(C(F)(F)F)n2)c(F)c1 [Example 342, (5S)-5-[(2,2-dimethylpyrrolidin-1-yl)carbonyl]-1-{3-fluoro-4-[5-(trifluoromethyl)-1,2,4-oxadiazol-3-yl]phenyl}pyrrolidin-2-one]",45000,25000
"Cc1cccc(N2CCC(NCc3ccc(-c4noc(C(F)(F)F)n4)cc3)CC2)c1 [Example 349, 1-(3-methylphenyl)-N-({4-[5-(trifluoromethyl)-1,2,4-oxadiazol-3-yl]phenyl}methyl)piperidin-4-amine]",730,1400
"CN1Cc2ccc(NCc3ccc(-c4noc(C(F)(F)F)n4)cn3)cc2C1=O [Example 356, 2-methyl-6-[({5-[5-(trifluoromethyl)-1,2,4-oxadiazol-3-yl]pyridin-2-yl}methyl)amino]-2,3-dihydro-1H-isoindol-1-one]",280,520
"FC(F)(F)c1nc(-c2ccc(CNc3ccc4nccn4c3)nc2)no1 [Example 357, N-({5-[5-(trifluoromethyl)-1,2,4-oxadiazol-3-yl]pyridin-2-yl}methyl)imidazo[1,2-a]pyridin-6-amine]",210,960
"Cn1ccc(NCc2ccc(-c3noc(C(F)(F)F)n3)cn2)cc1=O [Example 358, 1-methyl-4-[({5-[5-(trifluoromethyl)-1,2,4-oxadiazol-3-yl]pyridin-2-yl}methyl)amino]pyridin-2(1H)-one]",890,2400
"Cc1ccc(NCc2ccc(-c3noc(C(F)(F)F)n3)cn2)cn1 [Example 359, 6-methyl-N-({5-[5-(trifluoromethyl)-1,2,4-oxadiazol-3-yl]pyridin-2-yl}methyl)pyridin-3-amine]",430,1800
"OCc1cc(NCc2ccc(-c3noc(C(F)(F)F)n3)cn2)ccc1F [Example 361, {2-fluoro-5-[({5-[5-(trifluoromethyl)-1,2,4-oxadiazol-3-yl]pyridin-2-yl}methyl)amino]phenyl}methanol]",520,1600
"Cc1ccc(NCc2ccc(-c3noc(C(F)(F)F)n3)cn2)nn1 [Example 362, 6-methyl-N-({5-[5-(trifluoromethyl)-1,2,4-oxadiazol-3-yl]pyridin-2-yl}methyl)pyridazin-3-amine]",1400,2800
"COc1ccc(NCc2ccc(-c3noc(C(F)(F)F)n3)cn2)cn1 [Example 363, 6-methoxy-N-({5-[5-(trifluoromethyl)-1,2,4-oxadiazol-3-yl]pyridin-2-yl}methyl)pyridin-3-amine]",520,3400
"FC(F)(F)c1nc(-c2ccc(CNc3cc4ccccn4n3)nc2)no1 [Example 365, N-({5-[5-(trifluoromethyl)-1,2,4-oxadiazol-3-yl]pyridin-2-yl}methyl)pyrazolo[1,5-a]pyridin-2-amine]",1200,1800
"Cn1ncc(NCc2ccc(-c3noc(C(F)(F)F)n3)cn2)n1 [Example 366, 2-methyl-N-({5-[5-(trifluoromethyl)-1,2,4-oxadiazol-3-yl]pyridin-2-yl}methyl)-2H-1,2,3-triazol-4-amine]",1300,2700
